These results are taken from US7750155B2, “Pyrazinyl hydroxyacrylamide compounds having an inhibitory effect on the activity of histone deacetylase” (Astellas Pharma Inc., priority 2006, dated 2010).

Data set [1] has as its system T1, human histone deacetylase partially purified from human T cell leukemia Jurkat cells.
T1 construct: The human histone deacetylase was partially purified from human T cell leukemia Jurkat cells
Put plainly: Test 1: Determination of histone deacetylase inhibitor activity ([3H]acetyl histone deacetylation). Format: biochemical. The conditions noted are these: partially purified human HDAC from Jurkat cells, [3H]acetyl histone substrate, 25° C., 30 minutes; read-out: Test 1: HDAC inhibitory activity IC50. The method, then: Test 1: Determination of Histone Deacetylase Inhibitor Activity
The partial purification of human histone deacetylase, the preparation of [^3H] acetyl histones, and the assay for histone deacetylase activity were performed basically according to the method as proposed by Yoshida et al. as follows.
Partial Purification of Human Histone Deacetylase
The human histone deacetylase was partially purified from human T cell leukemia Jurkat cells. Jurkat cells (5×10^8 cells) were suspended in 40 mL of the HDA buffer consisting of 15 mM potassium phosphate, pH 7.5, 5% glycerol and 0.2 mM EDTA. After homogenization, nuclei were collected by centrifugation (35,000×g, 10 min) and homogenized in 20 mL of the same buffer supplemented with 1 M (NH4)2SO4. The viscous homogenate was sonicated and clarified by centrifugation (35,000×g, 10 min), and the deacetylase was precipitated by raising the concentration of (NH4)2SO4 to 3.5 M. The precipitated protein was dissolved in 10 mL of the HDA buffer and dialyzed against 4 liters of the same buffer. The dialyzate was then loaded onto a DEAE-cellulose (Whatman DE52) column (25×85 mm) equilibrated with the same buffer and eluted with 300 mL of a linear gradient (0-0.6 M) of NaCl. A single peak of histone deacetylase activity appeared between 0.3 and 0.4 M NaCl.
Preparation of [^3H] Acetyl Histone
To obtain [^3H] acetyl-labeled histone as the substrate for the histone deacetylase assay, 1×10^8 cells of Jurkat in 20 mL of RPMI-1640 medium (supplemented with 10% FBS, penicillin (50 units/mL) and streptomycin (50 μg/mL)) were incubated with 300 MBq [^3H] sodium acetate in the presence of 5 mM sodium butyrate for 30 minutes in 5% CO2-95% air atmosphere at 37° C. in a […] flask, harvested into a centrifuge tube (50 mL), collected by centrifugation at 1000 rpm for 10 minutes, and washed once with phosphate-buffered saline. The washed cells were suspended in 15 mL of ice-cold lysis buffer (10 mM Tris-HCl, 50 mM sodium bisulfite, 1% Triton X-100, 10 mM MgCl2, 8.6% sucrose, pH 6.5). After Dounce homogenization (30 stroke), the nuclei were collected by centrifugation at 1000 rpm for 10 minutes, washed 3 times with 15 mL of the lysis buffer, and once with 15 mL of ice-cooled washing buffer (10 mM Tris-HCl, 13 mM EDTA, pH 7.4) successively. The pellet was suspended in 6 mL of ice-cooled water using a mixer, and 68 μl of H2SO4 was added to the suspension to give a concentration of 0.4 N. After incubation at 4° C. for 1 hour, the suspension was centrifuged for 5 minutes at 15,000 rpm, and the supernatant was taken and mixed with 60 mL of acetone. After overnight incubation at −20° C., the coagulated material was collected by microcentrifugation, air-dried, and stored at −80° C.
Assay for Histone Deacetylase Activity
For the standard assay, 10 μl of [^3H] acetyl-labeled histones were added to 90 μl of the enzyme fraction, and the mixture was incubated at 25° C. for 30 minutes. The reaction was stopped by addition of 10 μl of HCl. The released [^3H] acetic acid was extracted with 1 mL of ethyl acetate, and 0.9 mL of the solvent layer was taken into 10 mL of toluene scintillation solution for determination of radioactivity.

In data set [2] the test system is splenic cells of Lewis rats (T lymphocyte blastogenesis). Put plainly: Test 2: T-cell growth inhibitor activity (T lymphocyte blastogenesis, Concanavalin A, AlamarBlue). Conditions: Lewis rat splenic cells, Concanavalin A 1 μg/mL, 72 hours, read-out: Test 2: T-cell growth inhibitory activity IC50. Format: cell-based. The method, then:
Test 2: Determination of T-Cell Growth Inhibitor Activity
The T lymphocyte blastogenesis test was performed in microtiter plates with each well containing 1.5×10^5 splenic cells of Lewis rats in 0.1 mL RPMI-1640 medium supplemented with 10% fetal bovine serum (FBS), […] 2-mercaptoethanol, penicilln (100 units/mL) and streptomycin (100 μg/mL), to which Concanavalin A (1 μg/mL) was added. The cells were incubated at 37° C. in a humidified atmosphere of 5% CO2 for 72 hours. After the culture period, suppressive activities of the test compounds in T lymphocyte blastogenesis were quantified by AlamarBlue (trademark) Assay. The test samples were dissolved in DMSO and further diluted with RPMI-1640 medium and added to the culture. The activities of the test compounds were expressed as IC50.

For data set [3], the system named is blood corpuscles (platelet, white blood corpuscle). Put plainly: Test 4: Measurement of change rate of blood corpuscles. Format: in vivo. Conditions: 4 mg/kg oral once a day for 14 days, male LEW rats, blood 24 hr after last administration. As for the experimental part: Test 4: Measurement of Change Rate of Blood Corpuscles Experimental drugs were oral administered to rats (male LEW) once a day for continuous 14 days. The blood sample contained heparin and EDTA were collected at 24 hr after last administration, and the number of differential blood corpuscles were measured by auto-hemocytometer (Sysmex).

Where a name gives a salt, the structure may show the parent alone.

With `Cl.Cl.O=C(/C=C/c1cnc(N[C@@H]2CCN(CCc3cccc(F)c3)C2)cn1)NO` [Example 1, (2E)-3-[5-({(3R)-1-[2-(3-fluorophenyl)ethyl]-3-pyrrolidinyl}amino)-2-pyrazinyl]-N-hydroxyacrylamide dihydrochloride], in data set [1], the IC50 amounted to 2.3 nM. Besides, the IC50 in data set [2] came to 2.4 nM. In data set [3], the “decrease rate (%) platelet” value was found to be 18.3% and the “decrease rate (%) white blood corpuscle” value amounted to 43.7%.
For the compound `Cl.Cl.O=C(/C=C/c1cnc(N[C@@H]2CCN(CCc3ccc(F)c(F)c3)C2)cn1)NO` [Example 5, (2E)-3-[5-({(3R)-1-[2-(3,4-difluorophenyl)ethyl]-3-pyrrolidinyl}amino)-2-pyrazinyl]-N-hydroxyacrylamide dihydrochloride], the half-inhibitory concentration (IC50) in data set [1] was 3.3 nM. Moreover, the IC50 in data set [2] is 0.93 nM. Also, in data set [3], the “decrease rate (%) platelet” value stood at 9.4% and the “decrease rate (%) white blood corpuscle” value is 40.3%.
In the same order, the values of `Cl.Cl.O=C(/C=C/c1cnc(N[C@@H]2CCCN(CCc3cccc(F)c3)C2)cn1)NO` [Example 6, (2E)-3-[5-({(3R)-1-[2-(3-fluorophenyl)ethyl]-3-piperidinyl}amino)-2-pyrazinyl]-N-hydroxyacrylamide dihydrochloride] are 1.7 nM, 0.65 nM, 24.3% and 72.2%.
The like results for `COc1ccc(CCN2CC[C@@H](Nc3cnc(/C=C/C(=O)NO)cn3)C2)cc1.Cl.Cl` [Example 18, (2E)-N-hydroxy-3-[5-({(3R)-1-[2-(4-methoxyphenyl)ethyl]-3-pyrrolidinyl}amino)-2-pyrazinyl]acrylamide dihydrochloride] were, in that order, 2.2 nM, 2.2 nM, 3.4% and 31.7%.
The like results for `Cl.Cl.O=C(/C=C/c1cnc(N[C@@H]2CCN(CCc3ccc(Br)cc3)C2)cn1)NO` [Example 19, (2E)-3-[5-({(3R)-1-[2-(4-bromophenyl)ethyl]-3-pyrrolidinyl}amino)-2-pyrazinyl]-N-hydroxyacrylamide dihydrochloride] were, in that order, 1.6 nM, 1.3 nM, 14.2% and 38.1%.
With `Cl.Cl.O=C(/C=C/c1cnc(N[C@@H]2CCN(CCc3ccc(Cl)cc3)C2)cn1)NO` [Example 23, (2E)-3-[5-({(3R)-1-[2-(4-chlorophenyl)ethyl]-3-pyrrolidinyl}amino)-2-pyrazinyl]-N-hydroxyacrylamide dihydrochloride], in data set [1], the IC50 was 2 nM. Also, the concentration for half-maximal inhibition (IC50) in data set [2] was 1.7 nM. In data set [3], the “decrease rate (%) platelet” value is 18.6% and the “decrease rate (%) white blood corpuscle” value came out at 64.6%.
In the same order, the values of `Cl.Cl.O=C(/C=C/c1cnc(N[C@@H]2CCCN(CCC3CCCCC3)C2)cn1)NO` [Example 25, (2E)-3-(5-{[(3R)-1-(2-cyclohexylethyl)-3-piperidinyl]amino}-2-pyrazinyl)-N-hydroxyacrylamide dihydrochloride] are 1.8 nM, 2.2 nM, 6.2% and 63.1%.
Turning to `O=C(/C=C/c1cnc(N[C@@H]2CCN(CCCC3CCCCC3)C2)cn1)NO` [Example 29, (2E)-3-[5-({(3R)-1-(3-cyclohexylpropyl)-3-pyrrolidinyl}amino)-2-pyrazinyl]-N-hydroxyacrylamide dihydrochloride], the half-maximal inhibitory concentration (IC50) was found to be 6.5 nM in data set [1] and 3.3 nM in data set [2].

Broadly, the IC50 is the midpoint of a concentration-inhibition curve.
